Experimental findings from patent publication US20260001928A1 (CORTERIA PHARMACEUTICALS, priority 2022, published 2026) are described below.

One assay addresses T1, human CRF2a receptor (Homo sapiens, UniProt Q13324).
T1 construct: expressed in transfected cells; host or cells: TeloHEAC cells
T1 sequence (Q13324 1-411): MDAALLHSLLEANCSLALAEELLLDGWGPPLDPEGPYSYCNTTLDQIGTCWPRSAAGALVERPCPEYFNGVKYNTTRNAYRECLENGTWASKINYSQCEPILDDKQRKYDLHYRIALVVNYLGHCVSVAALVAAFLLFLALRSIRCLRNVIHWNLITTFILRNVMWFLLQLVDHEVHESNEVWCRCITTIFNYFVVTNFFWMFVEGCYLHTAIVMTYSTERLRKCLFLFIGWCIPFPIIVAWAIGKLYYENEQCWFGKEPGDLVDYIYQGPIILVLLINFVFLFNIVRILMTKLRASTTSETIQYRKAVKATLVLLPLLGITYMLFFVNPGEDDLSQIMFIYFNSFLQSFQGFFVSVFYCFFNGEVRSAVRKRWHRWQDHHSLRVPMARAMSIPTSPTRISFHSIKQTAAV
Nature of the assay: Activity at human CRF2a receptor, cAMP functional assay in TeloHEAC cells. It counts as cell-based. The settings on record: TeloHEAC cells stably expressing human CRF2a receptor, relative to urocortin 2 (100 nM = 100%). The method, then:
Agonism of compounds for human corticotropin-releasing factor 2a (CRF2a receptor) was determined by a functional assay measuring cAMP modulation upon treatment of TeloHEAC cells stably expressing human CRF2a receptor. Compounds were dissolved at 0.5 mM in 100% DMSO and serially diluted (1:2) in 100% DMSO for 16 dilutions. 20 nL of each dilution was then transferred to 384-well assay plate using an acoustic droplet ejection instrument. 5 μL of compound buffer (1×HBSS; 20 mM HEPES,) were then added to each well. Prior to use, frozen cells were thawed quickly at 37° C. and washed (5 min at 900 rpm) with 20 mL cell buffer (1×HBSS; 20 mM HEPES). Cells were resuspended in cell buffer added with 2 mM IBMX and adjusted to a cell density of […]. 5 μL cells (final dell density: 10000 cells/well) were dispensed in the compound-containing 384-well assay plate and incubated for 30 minutes 37° C. The cAMP level in treated cells was determined using the Cisbio 62AM4PEC kit according to manufacturer's instruction. Finally, plates were incubated for 1 h at room temperature before measuring the fluorescence ratio between 665/620 nm. The percent activity value (E %) was calculated by setting 100 nM of urocortin 2 (UCN2) as 100%. The in vitro potency of the compounds was quantified by determining the concentrations that caused 50% activation of maximal response (EC50) relative to urocortin 2.

The target in a further assay is T2, CFR1R receptor (Homo sapiens, UniProt P34998).
T2 construct: host or cells: CHO-K1 (clone 2)
T2 sequence (P34998 24-415): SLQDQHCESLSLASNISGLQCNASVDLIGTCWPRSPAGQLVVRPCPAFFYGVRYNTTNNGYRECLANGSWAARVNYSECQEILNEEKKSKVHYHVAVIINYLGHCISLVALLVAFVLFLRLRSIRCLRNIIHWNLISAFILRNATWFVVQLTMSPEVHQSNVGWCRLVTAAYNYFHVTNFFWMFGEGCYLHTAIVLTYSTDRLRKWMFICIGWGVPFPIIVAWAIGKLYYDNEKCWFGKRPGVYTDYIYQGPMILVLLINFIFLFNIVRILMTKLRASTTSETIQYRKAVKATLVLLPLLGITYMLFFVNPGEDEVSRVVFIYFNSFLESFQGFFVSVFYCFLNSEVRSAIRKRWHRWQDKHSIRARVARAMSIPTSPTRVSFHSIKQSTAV
Nature of the assay: Activity at anti-target CFR1R receptor, cAMP assay in CRF1R-overexpression CHO-K1 cells. Type of assay: cell-based. The conditions noted are these: 100% = Sauvagine at 100 nM; for EC50: cAMP. In short, it runs like this:
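Signal is normalised to 100 nM Sauvagine, taken as 100% activation, in clone 2 cells plated at a final 4000 cells/well from frozen stocks.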
In general terms: Cyclic AMP is a second messenger, typically raised through Gs and lowered through Gi signalling.

The EC50 is the concentration needed to bring the measured effect to its halfway point. Lower therefore signals an effect from little substance.

*1 amine or outer side, *2 acyl side, *3 side chain or, on linkers, in order; H or OH if unused. Where a SMILES comes first, the peptide text is derived from it. Side-chain parts run from the residue outwards. [ ]: non-standard residue; d: D form. The star is where a group is joined. C16 diacid = O=C(O)CCCCCCCCCCCCCCC(=O)*; γGlu = O=C(O)[C@H](CCC(=O)[*:2])N[*:1]; αMeL = CC(C)C[C@](C)(N)C(=O)O; Aib = CC(C)(N)C(=O)O Where only a bound is given, the exact number is not on record here.

At human CRF2a receptor, `CC[C@H](C)[C@H](NC(C)=O)C(=O)N[C@H](C(=O)N[C@@H](CC(C)C)C(=O)N[C@@H](CO)C(=O)N[C@@H](CC(C)C)C(=O)N[C@@H](CC(=O)O)C(=O)N[C@@H](C(=O)N1CCC[C@H]1C(=O)N[C@H](C(=O)N[C@@H](CCCCN)C(=O)N[C@@H](CC(C)C)C(=O)N[C@@H](CCCCNC(=O)CC[C@H](NC(=O)CCCCCCCCCCCCCCC(=O)O)C(=O)O)C(=O)N[C@@H](CCC(N)=O)C(=O)N[C@H](C(=O)N[C@@H](CC(C)C)C(=O)N[C@@H](CC(C)C)C(=O)N[C@@H](CCCCN)C(=O)N[C@@H](CCC(N)=O)C(=O)N[C@@H](CCC(=O)O)C(=O)N[C@@H](CCCNC(=N)N)C(=O)N[C@@H](CCC(N)=O)C(=O)N[C@@H](CCCCN)C(=O)N[C@@H](CCCCN)C(=O)N[C@@H](CCC(N)=O)C(=O)N[C@@H](CCCNC(=N)N)C(=O)N[C@@H](CCC(=O)O)C(=O)N[C@@H](CCC(N)=O)C(=O)N[C@@H](C)C(=O)N[C@@H](CCC(=O)O)C(=O)N[C@@H](CCCCN)C(=O)N[C@@H](CC(N)=O)C(=O)NC(C)(C)C(=O)N[C@@H](CCC(N)=O)C(=O)N[C@H](C(=O)N[C@@H](CC(C)C)C(=O)N[C@@H](CCC(=O)O)C(=O)N[C@@H](CCC(N)=O)C(=O)N[C@H](C(N)=O)C(C)C)[C@@H](C)CC)[C@@H](C)CC)[C@@H](C)CC)C(C)C)C(C)C` [compound 16] (Ac-IVLSLD[dV]PIKLK([γGlu-C16 diacid])QILLKQERQKKQREQAEKN[Aib]QILEQV-NH2) registered an EC50 of 0.13 nM. Also, at CFR1R receptor, the “Emax (% I)” value is 47 % I.
As for `CC[C@H](C)[C@H](NC(C)=O)C(=O)N[C@H](C(=O)N[C@@H](CC(C)C)C(=O)N[C@@H](CO)C(=O)N[C@@H](CC(C)C)C(=O)N[C@@H](CC(=O)O)C(=O)N[C@@H](C(=O)N1CCC[C@H]1C(=O)N[C@H](C(=O)N[C@@H](CCCCN)C(=O)N[C@@H](CC(C)C)C(=O)N[C@@H](CCCCNC(=O)CC[C@H](NC(=O)CCCCCCCCCCCCCCC(=O)O)C(=O)O)C(=O)N[C@@H](CCC(N)=O)C(=O)N[C@H](C(=O)N[C@@H](CC(C)C)C(=O)N[C@@H](CC(C)C)C(=O)N[C@@H](CCCCN)C(=O)N[C@@H](CCC(N)=O)C(=O)N[C@@H](CCC(=O)O)C(=O)N[C@@H](CCCNC(=N)N)C(=O)N[C@@H](CCC(N)=O)C(=O)N[C@@H](CCCCN)C(=O)N[C@@H](CCCCN)C(=O)N[C@@H](CCC(N)=O)C(=O)N[C@@H](CCCNC(=N)N)C(=O)N[C@@H](CCC(=O)O)C(=O)N[C@@H](CCC(N)=O)C(=O)N[C@@H](C)C(=O)N[C@@H](CCC(=O)O)C(=O)N[C@@H](CCCCN)C(=O)N[C@@H](CC(N)=O)C(=O)N[C@@H](CCC(=O)O)C(=O)N[C@@H](CCC(N)=O)C(=O)N[C@H](C(=O)N[C@@H](CC(C)C)C(=O)N[C@@H](CCC(=O)O)C(=O)N[C@@H](CCC(N)=O)C(=O)N[C@H](C(N)=O)C(C)C)[C@@H](C)CC)[C@@H](C)CC)[C@@H](C)CC)C(C)C)C(C)C` [compound 17] (Ac-IVLSLD[dV]PIKLK([γGlu-C16 diacid])QILLKQERQKKQREQAEKNEQILEQV-NH2), the 50% effective concentration (EC50) on human CRF2a receptor is 0.21 nM; at CFR1R receptor it was more than 250 nM. Moreover, at CFR1R receptor, the “Emax (% I)” value is given as 12 % I.
For `CC[C@H](C)[C@H](NC(C)=O)C(=O)N[C@H](C(=O)N[C@@H](CC(C)C)C(=O)N[C@@H](CO)C(=O)N[C@@H](CC(C)C)C(=O)N[C@@H](CC(=O)O)C(=O)N[C@@H](C(=O)N1CCC[C@H]1C(=O)N[C@H](C(=O)N[C@@H](CCCCN)C(=O)N[C@@H](CC(C)C)C(=O)N[C@@H](CCCCNC(=O)CC[C@H](NC(=O)CCCCCCCCCCCCCCC(=O)O)C(=O)O)C(=O)N[C@@H](CCC(N)=O)C(=O)NC(C)(C)C(=O)N[C@@H](CC(C)C)C(=O)N[C@@H](CC(C)C)C(=O)N[C@@H](CCCCN)C(=O)N[C@@H](CCC(N)=O)C(=O)N[C@@H](CCC(=O)O)C(=O)N[C@@H](CCCNC(=N)N)C(=O)N[C@@H](CCC(N)=O)C(=O)N[C@@H](CCCCN)C(=O)N[C@@H](CCCCN)C(=O)N[C@@H](CCC(N)=O)C(=O)N[C@@H](CCCNC(=N)N)C(=O)N[C@@H](CCC(=O)O)C(=O)N[C@@H](CCC(N)=O)C(=O)N[C@@H](C)C(=O)N[C@@H](CCC(=O)O)C(=O)N[C@@H](CCCCN)C(=O)N[C@@H](CC(N)=O)C(=O)N[C@H](C(=O)N[C@@H](CCC(N)=O)C(=O)N[C@H](C(=O)N[C@@H](CC(C)C)C(=O)N[C@@H](CCC(=O)O)C(=O)N[C@@H](CCC(N)=O)C(=O)N[C@H](C(N)=O)C(C)C)[C@@H](C)CC)C(C)C)[C@@H](C)CC)C(C)C)C(C)C` [compound 18] (Ac-IVLSLD[dV]PIKLK([γGlu-C16 diacid])Q[Aib]LLKQERQKKQREQAEKNVQILEQV-NH2) the same measures were 3.55 nM, more than 250 nM and 10 % I.
For `CC[C@H](C)[C@H](NC(C)=O)C(=O)N[C@H](C(=O)N[C@@H](CC(C)C)C(=O)N[C@@H](CO)C(=O)N[C@@H](CC(C)C)C(=O)N[C@@H](CC(=O)O)C(=O)N[C@H](C(=O)N1CCC[C@H]1C(=O)N[C@H](C(=O)N[C@@H](CCCCN)C(=O)N[C@@](C)(CC(C)C)C(=O)N[C@@H](CCCCNC(=O)CC[C@H](NC(=O)CCCCCCCCCCCCCCC(=O)O)C(=O)O)C(=O)N[C@@H](CCC(N)=O)C(=O)NC(C)(C)C(=O)N[C@@H](CC(C)C)C(=O)N[C@@H](CC(C)C)C(=O)N[C@@H](CCCCN)C(=O)N[C@@H](CCC(N)=O)C(=O)N[C@@H](CCC(=O)O)C(=O)N[C@@H](CCCNC(=N)N)C(=O)N[C@@H](CCC(N)=O)C(=O)N[C@@H](CCCCN)C(=O)N[C@@H](CCCCN)C(=O)N[C@@H](CCC(N)=O)C(=O)N[C@@H](CCCNC(=N)N)C(=O)N[C@@H](CCC(=O)O)C(=O)N[C@@H](CCC(N)=O)C(=O)N[C@@H](C)C(=O)N[C@@H](CCC(=O)O)C(=O)N[C@@H](CCCCN)C(=O)N[C@@H](CC(N)=O)C(=O)NC(C)(C)C(=O)N[C@@H](CCC(N)=O)C(=O)N[C@H](C(=O)N[C@@H](CC(C)C)C(=O)N[C@@H](CCC(=O)O)C(=O)N[C@@H](CCC(N)=O)C(=O)N[C@H](C(N)=O)C(C)C)[C@@H](C)CC)[C@@H](C)CC)C(C)C)C(C)C` [compound 20] (Ac-IVLSLDVPIK[αMeL]K([γGlu-C16 diacid])Q[Aib]LLKQERQKKQREQAEKN[Aib]QILEQV-NH2) the same measures were 1.09 nM, more than 250 nM and 3 % I.
In the same order, the values of `CC[C@H](C)[C@H](NC(C)=O)C(=O)N[C@H](C(=O)N[C@@H](CC(C)C)C(=O)N[C@@H](CO)C(=O)N[C@@H](CC(C)C)C(=O)N[C@@H](CC(=O)O)C(=O)N[C@@H](C(=O)N1CCC[C@H]1C(=O)N[C@H](C(=O)N[C@@H](CCCCN)C(=O)N[C@@H](CC(C)C)C(=O)N[C@@H](CCCCNC(=O)CC[C@H](NC(=O)CCCCCCCCCCCCCCC(=O)O)C(=O)O)C(=O)N[C@@H](CCCCN)C(=O)N[C@H](C(=O)N[C@@H](CC(C)C)C(=O)N[C@@H](CC(C)C)C(=O)N[C@@H](CCCCN)C(=O)N[C@@H](CCC(N)=O)C(=O)N[C@@H](CCC(=O)O)C(=O)N[C@@H](CCCNC(=N)N)C(=O)N[C@@H](CCC(N)=O)C(=O)N[C@@H](CCCCN)C(=O)N[C@@H](CCCCN)C(=O)N[C@@H](CCC(N)=O)C(=O)N[C@@H](CCCNC(=N)N)C(=O)N[C@@H](CCC(=O)O)C(=O)N[C@@H](CCC(N)=O)C(=O)N[C@@H](C)C(=O)N[C@@H](CCC(=O)O)C(=O)N[C@@H](CCCCN)C(=O)N[C@@H](CC(N)=O)C(=O)NC(C)(C)C(=O)N[C@@H](CCC(N)=O)C(=O)N[C@H](C(=O)N[C@@H](CC(C)C)C(=O)N[C@@H](CCC(=O)O)C(=O)N[C@@H](CCC(N)=O)C(=O)N[C@H](C(N)=O)C(C)C)[C@@H](C)CC)[C@@H](C)CC)[C@@H](C)CC)C(C)C)C(C)C` [compound 21] (Ac-IVLSLD[dV]PIKLK([γGlu-C16 diacid])KILLKQERQKKQREQAEKN[Aib]QILEQV-NH2) are 0.34 nM, more than 250 nM and 5 % I.
